{
  "source": "patent US20210308077A1",
  "about": "“COMBINATIONS INCLUDING BETA-ADRENORECEPTOR AGONISTS FOR TREATMENT OF PARKINSON`S DISEASE AND MOVEMENT DISORDERS” (The Brigham and Women`s Hospital, Inc., priority 2017, published 2021)",
  "key": {"[1]": {"test_system": "α-synuclein protein and SNCA mRNA", "experiment": "SNCA expression in SNCA-triplication iPSC-derived neuronal progenitor cells", "type": "cell-based, human", "details": "SNCA-triplication NPCs, 20 μM", "description": "The derivation and culture of the WIBR-IPS-αSyn^TRPLline has been described previously (27).\nTo initiate differentiation, iPSC colonies were pretreated for 30-60 min with 5 μM Y-27632, a ROCK inhibitor (Calbiochem). They were single cell-dissociated after 5-10 minute exposure to accutase (StemProAccutase; Life Technologies) and then re-suspended in neural base (NB) medium, which is DMEM/F12 (Gibco/Life Technologies) supplemented with 0.5% N2 and 1% B27 (Life Technologies). […]\nTotal RNA from flash-frozen mice brain tissue, rodent primary cells, human neuroblastoma cells and iPSC-derived neuronal cells was isolated using TRIzol® (Life Technologies) following the manufacturer's protocol. RNA concentration was measured using NanoDrop spectrophotometer (Thermo Fisher Scientific, Wilmington, De.). […] Quantitative PCR was performed using TaqMan Universal PCR Master Mix (Applied Biosystems) on an ABI 7900HT instrument (Applied Biosystems) as described previously (31). […] Expression values were analyzed using the comparative threshold cycle method (31). […]"}, "MPTP mouse model": {"test_system": "MPTP mouse model", "experiment": "controlled trial in the MPTP mouse model", "type": "in vivo", "details": "MPTP 20 mg/kg i.p. five days; clenbuterol 10 mg/kg i.p. once then oral gavage daily for two weeks", "description": "Male C57bl/6 mice (8-10 weeks old) were analyzed. N-methyl-4-phenyl-1,2,3,6-tetrahydropyridine (MPTP-HCl; 20 mg/kg, measured as free base; Sigma, St. Louis, Mo.) was administered to mice intraperitoneally once per day for five consecutive days similar to described previously (26,36). Eight MPTP-treated mice assigned to the clenbuterol treatment group received one 10 mg/kg i.p. injection of clenbuterol (two days prior to MPTP treatment start) and then clenbuterol via oral gavage (10 mg/kg) daily for two weeks (starting on the day of the first MPTP treatment). Another eight MPTP-treated mice assigned to the vehicle treatment group received only oral drinking water (without clenbuterol). […]\nAfter overnight postfixation in 4% paraformaldehyde, brains were cryoprotected in 30% sucrose before cryosectioning into […] (used for stereology) free-floating sections, obtained as described previously (36). […] TH+ cells were analyzed by sterological estimates as described previously (36). Briefly, the total number of TH+neurons in the SNc was calculated by optical fractionation using Stereo Investigator (version 6; MicroBrightField, Williston, Vt.). […] Total number of TH+ neurons was determined using the optical fractionator. Adjacent tissue was also stained using cresyl violet (Sigma, 0.01% for 5 min) to confirm cell loss as assessed by TH analysis."}},
  "data": [
    {"smiles": "CC(C)(C)NCC(O)c1cc(Cl)c(N)c(Cl)c1", "note": "(stereo not shown) [clenbuterol]", "values": [
      {"measurement": "SNCA mRNA expression", "setting": "[1]; 3 days, P<0.005", "value": "significantly reduced"},
      {"measurement": "endogenous α-synuclein protein", "setting": "[1]; 4 days, P<0.05", "value": "significantly reduced"},
      {"measurement": "TH+ neurons in the SNpc", "setting": "MPTP mouse model", "value": "abrogated the MPTP-induced loss of TH+ neurons"},
      {"measurement": "cresyl-violet (CV) stained cells in the SNpc", "setting": "MPTP mouse model", "value": "blocked the loss of cresyl-violet (CV) stained cells"}
    ]}
  ]
}
